Assay results as given in patent US9580442B2, “Tricyclic heterocyclic compounds as phosphoinositide 3-kinase inhibitors” (Karus Therapeutics Limited, priority 2009, dated 2017).
Read-outs that look alike come from different tables or passages of the source.

Tests used:
PI3K p110α = PI3K p110α (Homo sapiens (Human), UniProt P42336); assay: PI3K isoform biochemical assay, p110α
PI3K p110β = PI3K p110β (Homo sapiens (Human), UniProt P42338); assay: PI3K isoform biochemical assay, p110β
PI3K p110δ = PI3K p110δ (Homo sapiens (Human), UniProt O00329); assay: PI3K isoform biochemical assay, p110δ
Sequence of PI3K p110δ (O00329 whole entry, canonical isoform): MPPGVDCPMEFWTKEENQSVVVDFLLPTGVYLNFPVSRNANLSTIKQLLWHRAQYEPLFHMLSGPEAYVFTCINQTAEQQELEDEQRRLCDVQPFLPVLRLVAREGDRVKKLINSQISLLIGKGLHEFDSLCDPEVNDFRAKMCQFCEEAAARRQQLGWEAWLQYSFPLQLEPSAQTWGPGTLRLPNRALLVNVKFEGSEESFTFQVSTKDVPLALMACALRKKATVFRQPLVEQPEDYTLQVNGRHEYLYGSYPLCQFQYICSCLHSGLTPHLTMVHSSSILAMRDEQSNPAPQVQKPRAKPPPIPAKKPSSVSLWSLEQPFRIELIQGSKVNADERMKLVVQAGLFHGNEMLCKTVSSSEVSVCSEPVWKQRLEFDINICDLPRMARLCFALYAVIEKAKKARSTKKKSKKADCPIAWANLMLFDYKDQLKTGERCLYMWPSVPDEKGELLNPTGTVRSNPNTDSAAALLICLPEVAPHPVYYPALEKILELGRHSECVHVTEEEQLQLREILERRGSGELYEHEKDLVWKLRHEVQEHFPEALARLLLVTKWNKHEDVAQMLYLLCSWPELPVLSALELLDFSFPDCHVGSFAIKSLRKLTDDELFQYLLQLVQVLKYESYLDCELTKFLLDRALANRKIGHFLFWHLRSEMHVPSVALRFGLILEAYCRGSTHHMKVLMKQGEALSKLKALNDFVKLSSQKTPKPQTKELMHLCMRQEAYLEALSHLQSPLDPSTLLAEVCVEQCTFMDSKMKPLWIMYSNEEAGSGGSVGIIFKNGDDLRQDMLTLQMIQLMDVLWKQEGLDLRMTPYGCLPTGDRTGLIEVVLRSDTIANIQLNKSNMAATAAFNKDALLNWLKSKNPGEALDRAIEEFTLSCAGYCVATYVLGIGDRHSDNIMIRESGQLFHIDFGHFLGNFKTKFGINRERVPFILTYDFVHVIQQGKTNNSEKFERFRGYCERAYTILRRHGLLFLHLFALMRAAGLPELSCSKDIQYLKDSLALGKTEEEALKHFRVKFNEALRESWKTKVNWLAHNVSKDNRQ
Sequence of PI3K p110δ (P27986 whole entry partner, canonical isoform): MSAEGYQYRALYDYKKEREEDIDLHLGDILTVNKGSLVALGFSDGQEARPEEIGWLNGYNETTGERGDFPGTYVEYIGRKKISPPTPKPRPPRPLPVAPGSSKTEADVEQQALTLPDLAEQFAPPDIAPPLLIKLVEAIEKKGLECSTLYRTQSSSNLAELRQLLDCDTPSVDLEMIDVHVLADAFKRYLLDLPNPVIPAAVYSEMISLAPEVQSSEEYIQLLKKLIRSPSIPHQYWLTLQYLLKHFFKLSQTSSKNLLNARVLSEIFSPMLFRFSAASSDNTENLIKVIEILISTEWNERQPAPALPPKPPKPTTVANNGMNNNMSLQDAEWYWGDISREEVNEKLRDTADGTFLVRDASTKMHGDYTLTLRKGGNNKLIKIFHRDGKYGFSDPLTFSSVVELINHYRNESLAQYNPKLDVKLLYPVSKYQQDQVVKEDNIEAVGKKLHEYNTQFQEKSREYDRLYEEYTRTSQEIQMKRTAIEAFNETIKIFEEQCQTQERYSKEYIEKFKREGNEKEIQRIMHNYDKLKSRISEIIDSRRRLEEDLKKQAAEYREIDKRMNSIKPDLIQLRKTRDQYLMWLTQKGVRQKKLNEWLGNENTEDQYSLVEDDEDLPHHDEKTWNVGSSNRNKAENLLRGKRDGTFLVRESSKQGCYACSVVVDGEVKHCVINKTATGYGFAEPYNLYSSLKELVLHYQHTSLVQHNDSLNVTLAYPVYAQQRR

PI3K p110γ = PI3K p110γ (Homo sapiens (Human), UniProt P48736); assay: PI3K isoform biochemical assay, p110γ
Sequence of PI3K p110γ (P48736 whole entry, canonical isoform): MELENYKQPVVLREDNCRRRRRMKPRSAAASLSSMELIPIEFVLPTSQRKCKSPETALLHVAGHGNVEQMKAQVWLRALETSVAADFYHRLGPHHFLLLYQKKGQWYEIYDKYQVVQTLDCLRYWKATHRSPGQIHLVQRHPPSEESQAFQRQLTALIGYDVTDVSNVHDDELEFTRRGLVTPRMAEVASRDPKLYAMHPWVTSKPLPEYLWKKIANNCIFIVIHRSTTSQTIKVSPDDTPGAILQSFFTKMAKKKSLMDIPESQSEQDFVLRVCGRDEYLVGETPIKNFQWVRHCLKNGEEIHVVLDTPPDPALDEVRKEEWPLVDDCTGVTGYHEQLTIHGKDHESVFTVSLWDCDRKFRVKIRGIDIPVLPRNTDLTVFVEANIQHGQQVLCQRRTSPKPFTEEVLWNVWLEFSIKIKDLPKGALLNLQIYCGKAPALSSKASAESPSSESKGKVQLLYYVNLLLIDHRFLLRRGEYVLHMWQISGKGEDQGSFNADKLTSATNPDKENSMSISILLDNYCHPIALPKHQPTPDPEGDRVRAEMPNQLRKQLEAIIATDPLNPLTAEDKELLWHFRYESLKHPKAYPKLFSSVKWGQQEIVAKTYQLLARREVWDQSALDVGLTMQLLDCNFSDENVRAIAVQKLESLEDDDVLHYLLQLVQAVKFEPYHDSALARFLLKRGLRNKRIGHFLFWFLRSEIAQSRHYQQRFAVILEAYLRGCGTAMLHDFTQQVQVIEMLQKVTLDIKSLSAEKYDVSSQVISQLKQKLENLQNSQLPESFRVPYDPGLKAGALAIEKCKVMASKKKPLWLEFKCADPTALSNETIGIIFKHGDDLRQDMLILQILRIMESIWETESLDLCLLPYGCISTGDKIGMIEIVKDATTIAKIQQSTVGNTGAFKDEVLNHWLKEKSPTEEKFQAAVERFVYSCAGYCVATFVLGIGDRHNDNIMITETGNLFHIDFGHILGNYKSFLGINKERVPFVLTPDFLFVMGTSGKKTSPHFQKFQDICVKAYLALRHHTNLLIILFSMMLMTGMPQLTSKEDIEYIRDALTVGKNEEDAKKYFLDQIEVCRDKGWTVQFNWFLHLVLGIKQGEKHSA

[1] = tested on: Rheumatoid Arthritis Synovial Fibroblast (RASF); assay: In vitro inhibition of rheumatoid arthritis synovial fibroblast (RASF) proliferation; assay type: cell-based
PC3 (Prostate Tumour) = assay: In vitro inhibition of tumour cell proliferation, PC3; assay type: cell-based
MCF7 (Breast Tumour) = assay: In vitro inhibition of tumour cell proliferation, MCF7; assay type: cell-based
A549 (Lung Tumour) = assay: In vitro inhibition of tumour cell proliferation, A549; assay type: cell-based
TNFα = assay: Inhibition of TNFα production from LPS-stimulated hPBMCs; assay type: cell-based, human; conditions: hPBMCs stimulated with LPS; for inhibition at 1 µM: Homo sapiens, read-out: % Inhibition of Proinflammatory Cytokine Production at 1 uM, TNFα
Description: (§1) 2) Anti-Inflammatory Activity: Inhibition of the Production of Pro-Inflammatory Cytokines from Stimulated Human Peripheral Blood Mononuclear Cells (hPBMCs)
(§2) Compounds were tested at a concentration of 1 uM for cytokine release inhibition in hPBMCs stimulated with LPS (TNFα), PHA (IFNγ) and anti-CD3 (IL-17A, IL-17F, IL-21, IL-23): […]

IFNγ = assay: Inhibition of IFNγ production from PHA-stimulated hPBMCs; assay type: cell-based, human; conditions: hPBMCs stimulated with PHA; for inhibition at 1 µM: Homo sapiens, read-out: % Inhibition of Proinflammatory Cytokine Production at 1 uM, IFNγ
Description: as §1, §2

IL-17A = assay: Inhibition of IL-17A production from anti-CD3-stimulated hPBMCs; assay type: cell-based, human; conditions: for inhibition at 1 µM: Homo sapiens, hPBMCs stimulated with anti-CD3, read-out: % Inhibition of Proinflammatory Cytokine Production at 1 uM, IL-17A
Description: as §1, §2

IL-17F = assay: Inhibition of IL-17F production from anti-CD3-stimulated hPBMCs; assay type: cell-based, human; conditions: for inhibition at 1 µM: Homo sapiens, hPBMCs stimulated with anti-CD3, read-out: % Inhibition of Proinflammatory Cytokine Production at 1 uM, IL-17F
Description: as §1, §2

IL-21 = assay: Inhibition of IL-21 production from anti-CD3-stimulated hPBMCs; assay type: cell-based, human; conditions: for inhibition at 1 µM: Homo sapiens, hPBMCs stimulated with anti-CD3, read-out: % Inhibition of Proinflammatory Cytokine Production at 1 uM, IL-21
Description: as §1, §2

IL-23 = assay: Inhibition of IL-23 production from anti-CD3-stimulated hPBMCs; assay type: cell-based, human; conditions: for inhibition at 1 µM: Homo sapiens, hPBMCs stimulated with anti-CD3, read-out: % Inhibition of Proinflammatory Cytokine Production at 1 uM, IL-23
Description: as §1, §2

[2] = hPBMCs stimulated with anti-CD3

Sequence of PI3K p110α (P42336 whole entry, canonical isoform): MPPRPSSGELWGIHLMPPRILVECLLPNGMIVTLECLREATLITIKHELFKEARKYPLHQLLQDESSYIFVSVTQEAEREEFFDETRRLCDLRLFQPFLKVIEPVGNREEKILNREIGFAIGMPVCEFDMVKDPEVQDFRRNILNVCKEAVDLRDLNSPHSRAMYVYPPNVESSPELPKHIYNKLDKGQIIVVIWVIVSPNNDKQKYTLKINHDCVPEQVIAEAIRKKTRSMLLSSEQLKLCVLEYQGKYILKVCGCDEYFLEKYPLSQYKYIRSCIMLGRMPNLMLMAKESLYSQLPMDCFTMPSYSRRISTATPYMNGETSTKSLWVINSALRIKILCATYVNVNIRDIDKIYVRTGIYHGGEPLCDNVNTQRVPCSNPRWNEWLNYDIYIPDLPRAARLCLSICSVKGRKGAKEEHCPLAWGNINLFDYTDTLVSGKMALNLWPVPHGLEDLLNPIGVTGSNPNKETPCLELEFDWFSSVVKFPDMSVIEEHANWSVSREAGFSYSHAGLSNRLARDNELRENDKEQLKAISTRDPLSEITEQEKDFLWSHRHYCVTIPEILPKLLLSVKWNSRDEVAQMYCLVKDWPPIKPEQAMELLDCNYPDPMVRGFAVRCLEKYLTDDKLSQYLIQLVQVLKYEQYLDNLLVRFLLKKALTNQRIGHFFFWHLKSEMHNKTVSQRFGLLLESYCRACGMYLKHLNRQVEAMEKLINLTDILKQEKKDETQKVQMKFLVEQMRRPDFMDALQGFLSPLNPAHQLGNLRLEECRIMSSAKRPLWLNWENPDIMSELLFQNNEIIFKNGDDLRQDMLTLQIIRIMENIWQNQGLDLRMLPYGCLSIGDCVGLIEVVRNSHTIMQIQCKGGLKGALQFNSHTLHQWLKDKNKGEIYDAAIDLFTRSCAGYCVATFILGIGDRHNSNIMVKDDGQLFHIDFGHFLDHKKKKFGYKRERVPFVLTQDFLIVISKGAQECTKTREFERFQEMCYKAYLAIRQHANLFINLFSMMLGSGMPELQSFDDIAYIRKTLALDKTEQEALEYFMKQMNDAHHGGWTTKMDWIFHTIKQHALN
Sequence of PI3K p110α (P27986 whole entry partner, canonical isoform): as the sequence (P27986 whole entry partner, canonical isoform) above
Sequence of PI3K p110β (P42338 whole entry, canonical isoform): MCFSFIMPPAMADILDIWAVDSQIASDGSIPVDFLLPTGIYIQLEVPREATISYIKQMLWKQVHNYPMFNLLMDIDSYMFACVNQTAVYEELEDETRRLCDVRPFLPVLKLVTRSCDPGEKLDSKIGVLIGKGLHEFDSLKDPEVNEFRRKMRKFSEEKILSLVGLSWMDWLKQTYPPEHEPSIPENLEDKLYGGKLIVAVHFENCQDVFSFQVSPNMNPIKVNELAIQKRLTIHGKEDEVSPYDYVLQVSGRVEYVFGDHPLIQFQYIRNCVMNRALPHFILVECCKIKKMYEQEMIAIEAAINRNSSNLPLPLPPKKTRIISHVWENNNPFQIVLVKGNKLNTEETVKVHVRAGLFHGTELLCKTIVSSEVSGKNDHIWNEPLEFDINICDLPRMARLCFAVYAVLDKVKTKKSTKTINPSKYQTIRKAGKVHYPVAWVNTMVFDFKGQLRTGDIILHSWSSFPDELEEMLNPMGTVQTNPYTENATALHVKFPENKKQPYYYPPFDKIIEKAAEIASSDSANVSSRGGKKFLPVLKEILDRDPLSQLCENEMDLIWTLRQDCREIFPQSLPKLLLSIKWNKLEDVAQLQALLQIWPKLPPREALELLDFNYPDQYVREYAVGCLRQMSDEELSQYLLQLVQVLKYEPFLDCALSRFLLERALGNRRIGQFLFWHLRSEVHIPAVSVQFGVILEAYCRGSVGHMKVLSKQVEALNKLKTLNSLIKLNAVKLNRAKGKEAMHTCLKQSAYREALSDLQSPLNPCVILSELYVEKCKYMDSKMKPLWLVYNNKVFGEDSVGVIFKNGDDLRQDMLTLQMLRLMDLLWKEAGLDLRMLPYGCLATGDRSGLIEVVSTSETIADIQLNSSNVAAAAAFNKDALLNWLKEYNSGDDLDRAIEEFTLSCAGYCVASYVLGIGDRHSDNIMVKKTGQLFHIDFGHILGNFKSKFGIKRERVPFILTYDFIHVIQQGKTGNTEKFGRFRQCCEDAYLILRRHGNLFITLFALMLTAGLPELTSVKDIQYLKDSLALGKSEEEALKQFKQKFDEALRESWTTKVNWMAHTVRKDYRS
Sequence of PI3K p110β (P27986 whole entry partner, canonical isoform): as the sequence (P27986 whole entry partner, canonical isoform) above

Row | Compound | IC50 (PI3K p110α) | IC50 (PI3K p110β) | IC50 (PI3K p110δ) | IC50 (PI3K p110γ) | IC50 ([1]; Fibroblast) | IC50 (PC3 (Prostate Tumour); Homo sapiens, PC-3) | IC50 (MCF7 (Breast Tumour); Homo sapiens) | IC50 (A549 (Lung Tumour); Homo sapiens) | also measured
1 | c1cc(-c2nc(N3CCOCC3)c3sc4ncccc4c3n2)c2cc[nH]c2c1 [A, 2-(1H-Indol-4-yl)-4-morpholin-4-yl-pyrido[3′,2′:4,5]thieno[3,2-d]pyrimidine] | 54 nM | 137 nM | 15 nM | 873 nM | 1350 nM | 3010 nM | 331 nM | 151 nM | 
2 | c1cc(-c2nc(N3CCOCC3)c3oc4ncccc4c3n2)c2cc[nH]c2c1 [B, 2-(1H-Indol-4-yl)-4-morpholin-4-yl-pyrido[3′,2′:4,5]furo[3,2-d]pyrimidine] | 159 nM | 19 nM | 6 nM | 317 nM | 817 nM | 1340 nM | 145 nM | 229 nM | inhibition at 1 µM (TNFα): 26%; inhibition at 1 µM (IFNγ): 73%; inhibition at 1 µM (IL-17A): 99%; inhibition at 1 µM (IL-17F): 96%; inhibition at 1 µM (IL-21): 96%; inhibition at 1 µM (IL-23): 94%
3 | c1cc(-c2nc(N3CCOCC3)c3oc4ncc(CN5CCCCC5)cc4c3n2)c2cc[nH]c2c1 [Compound I, 2-(1H-Indol-4-yl)-4-morpholin-4-yl-8-piperidin-1-ylmethyl-pyrido[3′,2′:4,5]furo[3,2d]pyrimidine] |  |  |  |  | 5720 nM |  |  |  | inhibition at 1 µM (TNFα): 61%; inhibition at 1 µM (IFNγ): 80%; inhibition at 1 µM (IL-17A): 95%; inhibition at 1 µM (IL-17F): 95%; inhibition at 1 µM (IL-21): 96%; inhibition at 1 µM (IL-23): 90%
4 | c1cnc2oc3c(N4CCOCC4)nc(-c4ccnc5[nH]ccc45)nc3c2c1 [D, 4-Morpholin-4-yl-2-(1H-pyrrolo[2,3-b]pyridin-4-yl)-pyrido[3′,2′:4,5]furo[3,2-d]pyrimidine] | 104 nM | 57 nM | 33 nM | 103 nM |  |  |  |  | 
5 | c1cc(-c2cnc3oc4c(N5CCOCC5)nc(-c5cccc6[nH]ccc56)nc4c3c2)c2cc[nH]c2c1 [E, 2,8-Bis-(1H-indol-4-yl)-4-morpholin-4-yl-pyrido[3′,2′:4,5]furo[3,2-d]pyrimidine] | 88 nM | 69 nM | 7 nM | 627 nM |  |  |  |  | 
6 | CN(C)C(=O)/C=C/c1cnc2oc3c(N4CCOCC4)nc(-c4cccc5[nH]ccc45)nc3c2c1 [G, (E)-3-[2-(1H-Indol-4-yl)-4-morpholin-4-yl-pyrido[3′,2′:4,5]furo[3,2-d]pyrimidin-8-yl]-N,N-dimethylacrylamide] | 223 nM | 83 nM | 5 nM | 1660 nM |  | 3770 nM | 127 nM | 186 nM | 
7 | CN(C)Cc1cnc2oc3c(N4CCOCC4)nc(-c4cccc5[nH]ccc45)nc3c2c1 [H, [2-(1H-Indol-4-yl)-4-morpholin-4-yl-pyrido[3′,2′:4,5]furo[3,2-d]pyrimidin-8-ylmethyl]-dimethyl-amine] | 398 nM | 63 nM | 6 nM | 213 nM | 1900 nM | 3030 nM | 165 nM | 466 nM | inhibition at 1 µM (TNFα): 75%; inhibition at 1 µM (IFNγ): 87%; inhibition at 1 µM (IL-17A): 99%; inhibition at 1 µM (IL-17F): 96%; inhibition at 1 µM (IL-21): 96%; inhibition at 1 µM (IL-23): 93%
8 | CN1CCN(Cc2cnc3oc4c(N5CCOCC5)nc(-c5cccc6[nH]ccc56)nc4c3c2)CC1 [J, 2-(1H-Indol-4-yl)-8-(4-methyl-piperazin-1-ylmethyl)-4-morpholin-4-yl-pyrido[3′,2′:4,5]furo[3,2-d]pyrimidine] | 680 nM | 277 nM | 26 nM | 1040 nM |  |  |  |  | 
9 | c1cc(-c2nc(N3CCOCC3)c3oc4ncc(CN5CCOCC5)cc4c3n2)c2cc[nH]c2c1 [K, 2-(1H-Indol-4-yl)-4-morpholin-4-yl-8-morpholin-4-ylmethyl-pyrido[3′,2′:4,5]furo[3,2-d]pyrimidine] | 355 nM | 64 nM | 6 nM | 2610 nM | 3020 nM | 3340 nM | 352 nM | 682 nM | 
10 | COCCN(C)Cc1cnc2oc3c(N4CCOCC4)nc(-c4cccc5[nH]ccc45)nc3c2c1 [L, [2-(1H-Indol-4-yl)-4-morpholin-4-yl-pyrido[3′,2′:4,5]furo[3,2-d]pyrimidin-8-ylmethyl]-(2-methoxy-ethyl)-methyl-amine] | 604 nM | 111 nM | 21 nM | 1820 nM |  | 3240 nM | 119 nM | 1600 nM | 
11 | c1cc(-c2nc(N3CCOCC3)c3oc4ncc(N5CCOCC5)cc4c3n2)c2cc[nH]c2c1 [M, 2-(1H-Indol-4-yl)-4,8-di-morpholin-4-yl-pyrido[3′,2′:4,5]furo[3,2-d]pyrimidine] | 96 nM | 25 nM | 10 nM | 219 nM | 1610 nM |  |  |  | 
12 | N#CCCN1CCN(Cc2cnc3oc4c(N5CCOCC5)nc(-c5cccc6[nH]ccc56)nc4c3c2)CC1 [R, 3-{4-[2-(1H-Indol-4-yl)-4-morpholin-4-yl-pyrido[3′,2′:4,5]furo[3,2-d]pyrimidin-8-ylmethyl]-piperazin-1-yl}-propionitrile] | 597 nM | 131 nM | 22 nM | 2540 nM |  |  |  |  | 
13 | (E)-1-(4-Methyl-piperazin-1-yl)-3-[4-morpholin-4-yl-2-(1H-pyrrolo[2,3-b]pyridin-4-yl)-pyrido[3′,2′:4,5]furo[3,2-d]pyrimidin-8-yl]-propenone | 127 nM | 109 nM | 6 nM | 269 nM |  |  |  |  | % Inhibition of Proinflammatory Cytokine Production at 1 uM, TNFα (TNFα): 74%; % Inhibition of Proinflammatory Cytokine Production at 1 uM, IFNγ (IFNγ): 67%; % Inhibition of Proinflammatory Cytokine Production at 1 uM, IL-17A (IL-17A; [2]): 77%; % Inhibition of Proinflammatory Cytokine Production at 1 uM, IL-17F (IL-17F; [2]): 74%; % Inhibition of Proinflammatory Cytokine Production at 1 uM, IL-21 (IL-21; [2]): 82%; % Inhibition of Proinflammatory Cytokine Production at 1 uM, IL-23 (IL-23; [2]): 93%; IC50 [1]: 2240 nM; IC50 (PC3 (Prostate Tumour)): 7290 nM; IC50 (MCF7 (Breast Tumour)): 215 nM; IC50 (A549 (Lung Tumour)): 1150 nM
